We go through 1 substance from patent US4599362A, “2-aryl-ethyl ether derivatives and insecticidal and acaricidal agents containing said derivatives” (priority 1980, dated 1986).

The subject of one data set is male mice. The data set is described as follows: Test 9: Toxicity Test (acute oral, mice). The conditions noted are these: male mice; oral, corn oil; 7 days. The essentials: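 Compound dissolved or suspended in corn oil was given orally to male mice of 19–23 g body weight, at 0.2 ml per 10 g. Deaths and effects were recorded after 7 days.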
Data set [1] has as its system sensitive green rice leafhopper (collected at Chigasaki). The data set is described as follows: Test 3: Effect on Sensitive Green Rice Leafhopper. In kind it is in vivo. The settings on record: female adults, 24 hours. In outline:
(§1)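 Rice seedlings (2–3 leaves) sprayed with emulsifiable-concentrate dilutions at 100 or 20 ppm, 3 ml per pot, air-dried, then infested with 10 female adults per pot. Mortality counted after 24 h and averaged over three pots.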

Data set [2] deals with resistant green rice leafhopper (collected at Nakagawara). The data set is described as follows: Test 3: Effect on Resistant Green Rice Leafhopper. It is filed as in vivo, Nephotettix cincticeps Uhler. The conditions noted are these: resistant, female adults, 24 hours. The essentials:
as §1

The subject of the next data set is two-spotted spider mite. Put plainly: Test 6: Effect on Two-Spotted Spider mite adults. It is filed as in vivo. The conditions noted are these: 500 ppm; adults; 24 hours. The essentials: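 Kidney bean leaf discs (15 mm) on wet cotton, each holding 10 adult mites, sprayed with 3 ml of a 500 ppm dilution of an emulsifiable concentrate. Kept at 25° C; dead adults counted after 24 hours to give mortality, averaged over three discs.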

Turning to “Pyrethrin [Comparative Compound (c), reference compound]”, the “Acute Toxicity at Oral Administration, LD-50” value in the data set on male mice amounted to 340 mg/kg. The “Mortality (%) Green Rice Leafhopper Collected at Chigasaki” value in data set [1] (20 ppm) and in data set [1] (100 ppm) was 0% in each case. Further, the “Mortality (%) Green Rice Leafhopper Collected at Nakagawara” value in data set [2] (20 ppm) and in data set [2] (100 ppm) was 0% throughout. The “Mortality (%)” value with two-spotted spider mite is listed as 0%.
